# Experimental data published in patent publication US20220349887A1, “Compositions and Methods for Multiplex Detection of Microorganisms Using Peptide-Tagged Recombinant Infectious Agents” (priority 2021, published 2022).
# Columns and labels:
# Assay in all cases: Antibiotic susceptibility testing in human blood: cefoxitin enrichment, then MP115.NL/SAPJV1.NL phage infection, luminescence
# Type in all cases: cell-based
# [1] = test system: methicillin-susceptible Staphylococcus aureus (MSSA) ATCC 12600; conditions: 130 CFU/Well
# Method: (§1) Methicillin-resistant Staphylococcus aureus (MRSA) strains (ATCC BAA-1720, CDC AR0480) and the methicillin-susceptible Staphylococcus aureus (MSSA) strain (ATCC 12600) were grown to log phase (OD600 ranged from 0.16 to 0.4) in tryptic soy broth (TSB). Cultures were diluted in TSB to obtain the desired burden, which was confirmed by plating on TSB agar for colony forming units (CFU). 50 μL of each dilution was added to test strips. When indicated, some strips contained bound anti-NANOLUC® antibody on medium-binding plates for capture. 85 μL, of either TSB or human blood diluted with TSB and sodium polyanethole sulfonate (SPS) was added. Human blood was collected from a single donor using sodium heparin as an anti-coagulant. Each well then received 15 μL of either TSB or 22 μg/mL cefoxitin (FOX) in TSB. The final concentration of each component in the well (150 μL volume) was 25% human blood, 0.0375% SPS, and 2.2 μg/mL FOX. Test strips were then sealed with cover film and incubated at 37° C. for two hours. After this selective enrichment, 20 μL of phage working stock was added to wells containing the TSB matrix. Phage working stock contained 8×10^7 plaque forming units per mL (pfu/mL) of MP115.NL and 6.9×10^8 pfu/mL of SAPJV1.NL. For wells containing blood matrix, 0.5 mg of recombinant Staphylococcal protein A (pro-356, Prospec, Ness-Ziona, Israel) per well was included within the 20 μL of phage working stock. Assay strips were once again sealed with cover film and incubated at 37° C. for three hours. Following infection, anti-NanoLuc capture and controls strips were washed three times with 300 μL PBS-T (10 mM sodium phosphate, 150 mM NaCl, 0.05% Tween 20, pH 7.4). Washes were conducted using an automatic plate washer (AccuWash, Thermo Fisher Scientific, Waltham, Mass., USA). 100 μL of NanoGlo buffer (Promega, Madison, Wisc., USA) containing 1 μL of NanoGlo substrate (Promega, Madison, Wisc., USA) was added to each well. “No wash+No Capture” strips were not washed and instead received 65 μL of a master mix containing 50 μL NanoGlo Buffer, 15 μL TSB, and 1 μL NanoGlo substrate. Following a 3 minute wait period, the signal output of each sample as relative light units (RLU) was determined using a GloMax Navigator (Promega, Madison, Wisc., USA). Signal over background (SB) was calculated by dividing the RLU from each sample from the RLU observed in the media control for that test matrix (Table 2).
# [2] = test system: Methicillin-resistant Staphylococcus aureus (MRSA) ATCC BAA-1720; conditions: 41 CFU/Well
# Method: as §1
# [3] = test system: Methicillin-resistant Staphylococcus aureus (MRSA) CDC AR0480; conditions: 110 CFU/Well
# Method: as §1
# [4] = 5% BSA Blocked Strips, Blood + FOX 2.2 μg/mL
# [5] = 5% BSA Blocked Strips, TSB + FOX 2.2 μg/mL
# [6] = Anti-NanoLuc Capture Strips, Blood + FOX 2.2 μg/mL
# [7] = Anti-NanoLuc Capture Strips, TSB + FOX 2.2 μg/mL
# [8] = No Capture + No Wash, Blood + FOX 2.2 μg/mL
# [9] = No Capture + No Wash, TSB + FOX 2.2 μg/mL
compound,measurement,setting,value
"CO[C@@]1(NC(=O)Cc2cccs2)C(=O)N2C(C(=O)O)=C(COC(N)=O)CS[C@@H]21 [FOX, cefoxitin]",RLU,[1]; [4],10 RLU
same,S/B,[1]; [4],1
same,RLU,[1]; [5],6 RLU
same,S/B,[1]; [5],1
same,RLU,[1]; [6],18 RLU
same,S/B,[1]; [6],1
same,RLU,[1]; [7],80 RLU
same,S/B,[1]; [7],1
same,RLU,[1]; [8],103 RLU
same,S/B,[1]; [8],2
same,RLU,[1]; [9],988 RLU
same,S/B,[1]; [9],1
same,RLU,[2]; [4],12 RLU
same,S/B,[2]; [4],2
same,RLU,[2]; [5],20 RLU
same,S/B,[2]; [5],3
same,RLU,[2]; [6],63960 RLU
same,S/B,[2]; [6],3998
same,RLU,[2]; [7],79180 RLU
same,S/B,[2]; [7],1028
same,RLU,[2]; [8],9035 RLU
same,S/B,[2]; [8],177
same,RLU,[2]; [9],342000 RLU
same,S/B,[2]; [9],447
same,RLU,[3]; [4],3 RLU
same,S/B,[3]; [4],0
same,RLU,[3]; [5],53 RLU
same,S/B,[3]; [5],7
same,RLU,[3]; [6],6927 RLU
same,S/B,[3]; [6],433
same,RLU,[3]; [7],96650 RLU
same,S/B,[3]; [7],1255
same,RLU,[3]; [8],432 RLU
same,S/B,[3]; [8],8
same,RLU,[3]; [9],127000 RLU
same,S/B,[3]; [9],166
